Patent US10980238B2, “Alkali metal salt for use in treatment of varroa destructor mite infestation of honey bees” (Universität Hohenheim, priority 2015, dated 2021)
Where “and” joins values, the source holds several entries; their conditions need not be identical. Equal values may be shown once. Read-outs that look alike come from different tables or passages of the source.

What was measured:
Varroa destructor = conditions: for effect on mites during the 7-day treatment period: 4 mM, data not shown; for Number of dead mites, Day 1 / Number of dead mites, Day 2 / Number of dead mites, Day 3 / Number of dead mites, Day 4 / Number of dead mites, Day 5 / Number of dead mites, Day 6 / Number of dead mites, Day 7: Li-salt 25 mM in sucrose syrup for 7 days; for Number of dead mites, Day 1 / Number of dead mites, Day 2 / Number of dead mites, Day 3 / Number of dead mites, Day 4 / Number of dead mites, Day 5 / Number of dead mites, Day 6 / Number of dead mites, Day 7 / Number of dead mites, Sum: 25 mites per cage, mean of three replicates; for Number of dead mites, Sum: Li-salt 25 mM in sucrose syrup, days 1-7
Text: (§1) The bees were fed with Li-salt/sucrose solutions for 7 days. Survival rate of bees and mites were monitored daily and dead bees or mites were removed.

bees [1] = conditions: for impact on bee viability: 4 mM, 7-day treatment period, data not shown; for Number of dead bees, Day 1 / Number of dead bees, Day 2 / Number of dead bees, Day 3 / Number of dead bees, Day 4 / Number of dead bees, Day 5 / Number of dead bees, Day 6 / Number of dead bees, Day 7: Li-salt 25 mM in sucrose syrup for 7 days; for Number of dead bees, Day 1 / Number of dead bees, Day 2 / Number of dead bees, Day 3 / Number of dead bees, Day 4 / Number of dead bees, Day 5 / Number of dead bees, Day 6 / Number of dead bees, Day 7 / Number of dead bees, Sum: 50 bees per cage, mean of three replicates; for Number of dead bees, Sum: Li-salt 25 mM in sucrose syrup, days 1-7
Text: as §1

bees [2] = assay: Experiment 4 cage test of MgCl2 (50 bees, 20 mites): bee health; assay type: in vivo, Apis mellifera; conditions: 100 mM in sucrose syrup
Experimental: To test the activity of bivalent ions we dissolved MgCl2 in sucrose syrup at a final concentration of 100 mM. 2 cages of 50 bees to which 20 mites were added were fed with sucrose syrup only and syrup containing 100 mM MgCl2.

Varroa mites = assay: Experiment 5 cage comparison of LiCl, NaCl and MgCl2: dead mites; assay type: in vivo, Varroa destructor; conditions: for Number of dead mites, Day 1 / Number of dead mites, Day 2 / Number of dead mites, Day 3 / Number of dead mites, Day 4 / Number of dead mites, Day 5 / Number of dead mites, Day 6 / Number of dead mites, Day 7 / Number of dead mites, Sum: 25 mites per cage, mean of 6 cages (LiCl) or 3 cages; for Number of dead mites, Sum: 25 mM in 70% sucrose, days 1-7
Experimental: (§2) In a further experiment LiCl, NaCl and MgCl2 were selected and their acaricidal activity compared. The experiment was performed in cages of 50 bees, to each of which 25 mites were added. Bees in control cages received sucrose only. LiCl, NaCl or MgCl2 were added to 70% sucrose solutions at a final concentration of 25 mM each and fed to the bees for seven days. Survival rate of bees and mites were monitored daily. Dead bees and mites were removed from the cages.
(§3) The numbers represent mean values derived from 6 cages. […] Numbers for NaCl, MgCl2 and control represent mean values derived from 3 separate cages.

bees [3] = conditions: 50 bees per cage; for Number of dead bees, Day 1 / Number of dead bees, Day 2 / Number of dead bees, Day 3 / Number of dead bees, Day 4 / Number of dead bees, Day 5 / Number of dead bees, Day 6 / Number of dead bees, Day 7: 25 mM in 70% sucrose for seven days; for Number of dead bees, Day 1 / Number of dead bees, Day 2 / Number of dead bees, Day 3 / Number of dead bees, Day 4 / Number of dead bees, Day 5 / Number of dead bees, Day 6 / Number of dead bees, Day 7 / Number of dead bees, Sum: mean of 6 cages (LiCl) or 3 cages; for Number of dead bees, Sum: days 1-7
Experimental: as §2, §3

[4] = 25 mM in 70% sucrose for seven days

Row | Structure (SMILES) | effect on mites during the 7-day treatment period (Varroa destructor) | Number of dead mites, Day 1 (Varroa destructor) | Number of dead mites, Day 2 (Varroa destructor) | Number of dead mites, Day 3 (Varroa destructor) | Number of dead mites, Day 4 (Varroa destructor) | Number of dead mites, Day 5 (Varroa destructor) | Number of dead mites, Day 6 (Varroa destructor) | Number of dead mites, Day 7 (Varroa destructor) | Number of dead mites, Sum (Varroa destructor) | impact on bee viability (bees [1]) | Number of dead bees, Day 1 (bees [1]) | Number of dead bees, Day 2 (bees [1]) | Number of dead bees, Day 3 (bees [1]) | Number of dead bees, Day 4 (bees [1]) | Number of dead bees, Day 5 (bees [1]) | Number of dead bees, Day 6 (bees [1]) | Number of dead bees, Day 7 (bees [1]) | Number of dead bees, Sum (bees [1]) | Number of dead mites, Day 1 (Varroa mites; [4]) | Number of dead mites, Day 2 (Varroa mites; [4]) | other results
1 | O=C([O-])[O-].[Li+].[Li+] [Li-carbonate, lithium carbonate] | killed all mites | 0.3 | 3.0 | 20.0 | 1.7 | 0.0 | 0.0 | 0.0 | 25.0 | without a significant negative impact on bee viability | 0.7 | 0.0 | 0.0 | 0.0 | 0.0 | 0.3 | 0.7 | 1.7 |  |  | 
2 | O=C([O-])CC(O)(CC(=O)[O-])C(=O)[O-].[Li+].[Li+].[Li+] [Li-citrate, lithium citrate] | killed all mites | 0.3 | 10.0 | 14.7 | 0.0 | 0.0 | 0.0 | 0.0 | 25.0 | without a significant negative impact on bee viability | 0.0 | 0.0 | 0.3 | 0.0 | 0.7 | 1.7 | 0.3 | 3.0 |  |  | 
3 | CC(O)C(=O)[O-].[Li+] (centres unmarked) [Li-lactate, lithium lactate] | killed all mites | 0.7 | 14.0 | 6.3 | 4.0 | 0.0 | 0.0 | 0.0 | 25.0 | without a significant negative impact on bee viability | 0.3 | 0.0 | 0.0 | 0.7 | 2.0 | 0.3 | 1.7 | 5.0 |  |  | 
4 | O=S(=O)([O-])[O-].[Li+].[Li+] [Li-sulfate, lithium sulfate] | killed all mites | 0.7 | 18.0 | 5.7 | 0.7 | 0.0 | 0.0 | 0.0 | 25.0 | without a significant negative impact on bee viability | 0.0 | 0.0 | 0.0 | 1.0 | 3.7 | 1.7 | 0.0 | 6.3 |  |  | 
5 | [Cl-].[Cl-].[Mg+2] [MgCl2] |  |  |  |  |  |  |  |  |  |  |  |  |  |  |  |  |  |  | 0.3 | 1.0 | effect on bee health (bees [2]): impair bee health substantially; Number of dead mites, Day 3 (Varroa mites; [4]): 1.0; Number of dead mites, Day 4 (Varroa mites; [4]): 3.7; Number of dead mites, Day 5 (Varroa mites; [4]): 0.7; Number of dead mites, Day 6 (Varroa mites; [4]): 0.0; Number of dead mites, Day 7 (Varroa mites; [4]): 0.0; Number of dead mites, Sum (Varroa mites): 6.7; Number of dead bees, Day 1 (bees [3]): 0.0; Number of dead bees, Day 2 (bees [3]): 18.0; Number of dead bees, Day 3 (bees [3]): 18.3; Number of dead bees, Day 4 (bees [3]): 9.3; Number of dead bees, Day 5 (bees [3]): 4.3; Number of dead bees, Day 6 (bees [3]): 0.0; Number of dead bees, Day 7 (bees [3]): 0.0; Number of dead bees, Sum (bees [3]; 25 mM in 70% sucrose): 50.0; time after which all bees were dead (bees [3]; 25 mM in 70% sucrose): 5 days
6 | [Cl-].[Na+] [NaCl] |  |  |  |  |  |  |  |  |  |  |  |  |  |  |  |  |  |  | 0.0 | 0.3 | acaricidal effect (Varroa mites; [4]): fails to exhibit an acaricidal effect; Number of dead mites, Day 3 (Varroa mites; [4]): 0.0; Number of dead mites, Day 4 (Varroa mites; [4]): 0.0; Number of dead mites, Day 5 (Varroa mites; [4]): 0.3; Number of dead mites, Day 6 (Varroa mites; [4]): 0.7; Number of dead mites, Day 7 (Varroa mites; [4]): 1.0; Number of dead mites, Sum (Varroa mites): 2 and 2.3; Number of dead bees, Day 1 (bees [3]): 0.0; Number of dead bees, Day 2 (bees [3]): 0.0; Number of dead bees, Day 3 (bees [3]): 0.0; Number of dead bees, Day 4 (bees [3]): 0.3; Number of dead bees, Day 5 (bees [3]): 0.0; Number of dead bees, Day 6 (bees [3]): 0.0; Number of dead bees, Day 7 (bees [3]): 1.3; Number of dead bees, Sum (bees [3]; 25 mM in 70% sucrose): 2 and 1.7
